Laboratory results reported in patent publication US11246856B2, “Methods of treating resistant cancers” (University of Maryland, Baltimore, priority 2017, dated 2022).

Test system: YAP1, TAZ and TEAD in A375 and A375-PLX-R cells
Experiment: YAP1/TAZ/TEAD mRNA and protein level after verteporfin, monolayer cells
Type: cell-based
Method: Equivalent amounts of protein were electrophoresed on denaturing and reducing 10% polyacrylamide gels and transferred to nitrocellulose membrane. The membrane was blocked by 5% nonfat dry milk for one hour and incubated with 1:1000 primary antibody in 5% nonfat dry milk. Blots were rinsed in TBS-T and then incubated with secondary antibodies (1:5000) for 2 h. Secondary antibody binding was visualized using ECL Prime (Amersham) chemiluminescence detection technology. For immunostaining, cells were harvested, suspended in growth medium, and plated in LAB-TEK II Chamber Slide System. After 24 h, the cells were fixed with 4% paraformaldehyde at room temperature for 15 min, washed three with phosphate-buffered saline, in 0.1% Triton X-100 for 15 min, washed with phosphate-buffered saline, and blocked for 1 h with phosphate-buffered saline containing 7.5% fetal calf serum. Primary antibodies were added, and the slides incubated overnight at 4° C. Cells were then washed three times with phosphate-buffered saline and incubated 1 h with the appropriate Alexa Flour fluorescence probe-conjugated secondary antibody. After additional washing, the cells were stained with DAPI for 10 min prior to imaging.
Total RNA was isolated using Illustra RNAspin mini kit (GE Healthcare), and 1 μg of RNA was used for cDNA synthesis. Gene expression was measured by real time PCR using Light Cycler 480 SYBR Green I Master Mix (04-707 516 001) from Roche Diagnostics (Indianapolis, Ind.). The signals were normalized using cyclophilin A control primers. The gene specific primers used for detection of mRNA levels were as follows: cyclophilin A (forward, 5′-[…] (SEQ ID NO: 3); reverse, 5′-[…] (SEQ ID NO: 4)), TAZ (forward, 5′-GTATCCCAGCCAATC TCG (SEQ ID NO: 5); reverse, 5′-TTCTGAGTGGGGTGGTTC (SEQ ID NO: 6)) and YAP1 (forward, 5′-[…] (SEQ ID NO: 7); reverse, 5′-[…], (SEQ ID NO: 8)) (11).
To understand the mechanism of verteporfin action, monolayer A375 and A375-PLX-R cells were treated with […] verteporfin for 24 h and the impact on YAP1/TAZ mRNA and protein level was monitored. […] The proteasome is known to regulate YAP1/TAZ level (29,30) and so whether the proteasome was responsible for the observed reductions was examined.

## verteporfin
1 mM verteporfin, 24 h, monolayer, FIG. 4F
  level of YAP1 or TAZ mRNA: did not impact
1 mM verteporfin, 24 h, monolayer, FIG. 4G
  YAP1 and TAZ protein levels: reduced
Verteporfin treatment, FIG. 4H
  TEAD transcription factor levels: reduced
